The results in this text go back to patent US9018388B2, “Pesticidal compositions and processes related thereto” (Dow AgroSciences LLC, priority 2012, dated 2015).

Assay [1] relates to Beet Armyworm (BAW) (Spodoptera exigua). The assay is described as follows: Bioassay on beet armyworm (BAW), 128-well diet tray assay. It is filed as in vivo. The settings on record: Spodoptera exigua, read-out: % Mortality BAW 50 μg/cm^2. The method, then: (§1) Bioassays on Beet Armyworm (“BAW”) and Corn Earworm (“CEW”)
(§2) Certain molecules disclosed in this document were tested against BAW and CEW using procedures described in the following examples. In the reporting of the results, the “BAW & CEW Rating Table” was used (See Table Section).
Bioassays on BAW (Spodoptera exigua)
Bioassays on BAW were conducted using a 128-well diet tray assay. One to five second instar BAW larvae were placed in each well (3 mL) of the diet tray that had been previously filled with 1 mL of artificial diet to which 50 μg/cm^2 of the test compound (dissolved in 50 μL of 90:10 acetone-water mixture) had been applied (to each of eight wells) and then allowed to dry. Trays were covered with a clear self-adhesive cover and held at 25° C., 14:10 light-dark for five to seven days. Percent mortality was recorded for the larvae in each well; activity in the eight wells was then averaged. The results are indicated in the table entitled “Table 5: Biological Results” (See Table Section).

Assay [2] deals with Corn Earworm (CEW) (Helicoverpa zea). The assay is described as follows: Bioassay on corn earworm (CEW), 128-well diet tray assay. It is filed as in vivo. The settings on record: Helicoverpa zea, read-out: % Mortality CEW 50 μg/cm^2. How it is done: as §1, §2
Bioassays on CEW (Helicoverpa zea)
Bioassays on CEW were conducted using a 128-well diet tray assay. One to five second instar CEW larvae were placed in each well (3 mL) of the diet tray that had been previously filled with 1 mL of artificial diet to which 50 μg/cm^2 of the test compound (dissolved in 50 μL of 90:10 acetone-water mixture) had been applied (to each of eight wells) and then allowed to dry. Trays were covered with a clear self-adhesive cover and held at 25° C., 14:10 light-dark for five to seven days. Percent mortality was recorded for the larvae in each well; activity in the eight wells was then averaged. The results are indicated in the table entitled “Table 5: Biological Results” (See Table Section).

SMILES strings stand for the structures. Where two headings read alike, the source gives them in different places.

For the compound `Cc1cccc(C)c1/N=C(/N/N=C/c1ccc(-c2ncn(-c3ccc(OC(F)(F)F)cc3)n2)cc1)SCC#C[Si](C)(C)C` [Compound 9C], the pest or weed control at 50 µg/cm2, 50 µg/cm2 in assay [1] and in assay [2] was 50 to 100% each time.
Take `FC(F)Oc1ccccc1N1CCS/C1=N\N=C\c1ccc(-c2ncn(-c3ccc(OC(F)(F)F)cc3)n2)cc1` [Compound 152C]: the pest or weed control at 50 µg/cm2, 50 µg/cm2 lay in the range of 50 to 100% in assay [1] (Beet armyworm, 50 μg/cm^2) and 50 to 100% in assay [2] (Corn earworm, 50 μg/cm^2).
Consider `Cc1cnccc1N1C(=O)CS/C1=N\N=C\c1ccc(-c2ncn(-c3ccc(OC(F)(F)F)cc3)n2)cc1` [Compound 118C], for which the pest or weed control at 50 µg/cm2, 50 µg/cm2 lay within 50 to 100% in assay [1] (Beet armyworm, 50 μg/cm^2) and 50 to 100% in assay [2] (Corn earworm, 50 μg/cm^2).
As for `COc1ccc(/N=C(/N/N=C/c2ccc(-c3ncn(-c4ccc(OC(F)(F)C(F)(F)F)cc4)n3)cc2)SCC(=O)O)c(C)c1` [Compound 50C], the pest or weed control at 50 µg/cm2, 50 µg/cm2 in assay [1] (Beet armyworm, 50 μg/cm^2) fell in the range of 50 to 100%; in assay [2] (Corn earworm, 50 μg/cm^2), 50 to 100%.
Take `COc1cc(C)c(/N=C(/N/N=C/c2ccc(-c3ncn(-c4ccc(OC(F)(F)F)cc4)n3)cc2)SCC(=O)O)c(C)c1` [Compound 48C]: the pest or weed control at 50 µg/cm2, 50 µg/cm2 in assay [1] (Beet armyworm, 50 μg/cm^2) fell in the range of 50 to 100%; in assay [2] (Corn earworm, 50 μg/cm^2), 50 to 100%.
Consider `CC(C)c1ccc(F)cc1N1CS/C1=N\N=C\c1ccc(-c2ncn(-c3ccc(OC(F)(F)C(F)(F)F)cc3)n2)cc1` [Compound 256C], for which the pest or weed control at 50 µg/cm2, 50 µg/cm2 was in the range of 50 to 100% in assay [1] (Beet armyworm, 50 μg/cm^2) and 50 to 100% in assay [2] (Corn earworm, 50 μg/cm^2).
Take `CCN(CC)c1ccc(-c2cs/c(=N\N=C\c3ccc(-c4ncn(-c5ccc(OC(F)(F)F)cc5)n4)cc3)n2-c2c(C)cccc2C)cc1` [Compound 74C]: the pest or weed control at 50 µg/cm2, 50 µg/cm2 in assay [1] (Beet armyworm, 50 μg/cm^2) is 50 to 100%; in assay [2] (Corn earworm, 50 μg/cm^2) it was 50 to 100%.
Take `Cc1cs/c(=N\N=C\c2ccc(-c3ncn(-c4ccc(OC(F)(F)F)cc4)n3)cc2)n1-c1ccccc1C(C)C` [Compound 176C]: the pest or weed control at 50 µg/cm2, 50 µg/cm2 lay within 50 to 100% in assay [1] (Beet armyworm, 50 μg/cm^2) and 50 to 100% in assay [2] (Corn earworm, 50 μg/cm^2).
Regarding `C/C(=N\N=C1/SCC(=O)N1c1ccccc1C(C)C)c1ccc(-c2ncn(-c3ccc(OC(F)(F)F)cc3)n2)cc1` [Compound 122C], the pest or weed control at 50 µg/cm2, 50 µg/cm2 in assay [1] (Beet armyworm, 50 μg/cm^2) was in the range of 50 to 100%; in assay [2] (Corn earworm, 50 μg/cm^2), 50 to 100%.
As to `CC(C)(C)c1ccccc1N1C(=O)CCS/C1=N\N=C\c1ccc(-c2ncn(-c3ccc(OC(F)(F)F)cc3)n2)cc1` [Compound 232C], the pest or weed control at 50 µg/cm2, 50 µg/cm2 in assay [1] (Beet armyworm, 50 μg/cm^2) was 50 to 100%; in assay [2] (Corn earworm, 50 μg/cm^2), 50 to 100%.
Regarding `CCC(C)c1ccccc1N1CCCS/C1=N\N=C\c1ccc(-c2ncn(-c3ccc(OC(F)(F)F)cc3)n2)cc1` (stereo not shown) [Compound 183C], the pest or weed control at 50 µg/cm2, 50 µg/cm2 in assay [1] (Beet armyworm, 50 μg/cm^2) lay in the range of 50 to 100%; in assay [2] (Corn earworm, 50 μg/cm^2), 50 to 100%.
In the case of `COc1cc(C)c(/N=C(/N/N=C/c2ccc(-c3ncn(-c4ccc(OC(F)(F)C(F)(F)F)cc4)n3)cc2)SCOC(=O)C(C)C)c(C)c1` [Compound 37C], the pest or weed control at 50 µg/cm2, 50 µg/cm2 in assay [1] (Beet armyworm, 50 μg/cm^2) lay in the range of 50 to 100%; in assay [2] (Corn earworm, 50 μg/cm^2), 50 to 100%.
Consider `CC(/N=C(/N/N=C/c1ccc(-c2ncn(-c3ccc(OC(F)(F)F)cc3)n2)cc1)SCC(=O)O)c1ccccc1` (stereo not shown) [Compound 54C], for which the pest or weed control at 50 µg/cm2, 50 µg/cm2 was 50 to 100% in assay [1] (Beet armyworm, 50 μg/cm^2) and 50 to 100% in assay [2] (Corn earworm, 50 μg/cm^2).
`Cc1cccc(C)c1/N=C(/N/N=C/c1ccc(-c2ncn(-c3ccc(OC(F)(F)F)cc3)n2)cc1)SCC(=O)NC[C@@H]1CCCN(C(=O)OC(C)(C)C)C1` [Compound 56C, (S)-tert-butyl 3-((2-((Z)-(2,6-dimethylphenylimino)-((E)-2-(4-(1-(4-(trifluoromethoxy)phenyl)-1H-1,2,4-triazol-3-yl)benzylidene)hydrazinyl)-methylthio)acetamido)methyl)piperidine-1-carboxylate]: the pest or weed control at 50 µg/cm2, 50 µg/cm2 in assay [1] (Beet armyworm, 50 μg/cm^2) fell in the range of 50 to 100%; in assay [2] (Corn earworm, 50 μg/cm^2), 50 to 100%.
On to `CCC(C)c1ccccc1N1CCS/C1=N\N=C\c1ccc(-c2ncn(-c3ccc(OC(F)(F)F)cc3)n2)cc1` (stereo not shown) [Compound 135C], for which the pest or weed control at 50 µg/cm2, 50 µg/cm2 in assay [1] (Beet armyworm, 50 μg/cm^2) was in the range of 50 to 100%; in assay [2] (Corn earworm, 50 μg/cm^2), 50 to 100%.
Consider `COC(=O)C1CC(c2ccc(/C=N/N=C3\SCC(=O)N3c3c(C)cccc3C)cc2)=NN1c1ccc(OC(F)(F)F)cc1` (stereo not shown) [Compound 110C], for which the pest or weed control at 50 µg/cm2, 50 µg/cm2 in assay [1] (Beet armyworm, 50 μg/cm^2) fell in the range of 50 to 100%; in assay [2] (Corn earworm, 50 μg/cm^2) it was 50 to 100%.
Consider `CC(C)c1ccc(F)cc1N1CS/C1=N\N=C\c1ccc(-c2ncn(-c3ccc(C(F)(F)F)cc3)n2)cc1` [Compound 255C], for which the pest or weed control at 50 µg/cm2, 50 µg/cm2 in assay [1] (Beet armyworm, 50 μg/cm^2) lay within 50 to 100%; in assay [2] (Corn earworm, 50 μg/cm^2), 50 to 100%.
